# Measured values reported in patent publication US8158828B2, “Nuclear receptor binding agents” (priority 2005, dated 2012).
# Columns and labels:
# CCRF/CEM = conditions: estrogen receptor-negative cell line; cited from earlier work
# [1] = rats; cited from earlier work
# [2] = test system: pS2 (gene encoding the trefoil peptides) in MCF-7 cells; test: pS2 gene expression in MCF-7 cells (realtime RT-PCR); format: cell-based; conditions: 16 hrs
# Procedure: MCF-7 cells were plated at 500,000 cells per well of a 6 well plate. RNA was isolated and the message levels of pS2 (gene encoding the trefoil peptides) measured and normalized to 18S ribosomal RNA by realtime polymerase chain reaction (rtPCR).
# FIG. 11: Agonistic activity of the indicated compounds in MCF-7 cells. MCF-7 cells were plated at 500,000 cells per well of a 6 well plate. RNA was isolated and the message levels of pS2 gene measured and normalized to 18S ribosomal RNA by realtime rtPCR.
# MCF-7 cells were plated at 500,000 cells per well of a 6 well plate. The cells were serum starved for 3 days and then were treated as above for 16 hrs. RNA was isolated and gene expression levels assessed by realtime RT-PCR, following normalization to 18S ribosomal RNA.
# [3] = test system: TRAP positive multinucleated osteoclasts; test: TRAP positive multinucleated osteoclasts from bone marrow cells; format: cell-based, rat; conditions: RANKL and GMCSF, 12 days
# Procedure: FIG. 7: Effect of the indicated compounds on TRAP positive multinucleated osteoclasts. Bone marrow cells from rat femur was cultured in Alpha MEM+10% csFBS without phenol red in the presence or absence of 30 ng/ml RANKL and 10 ng/ml GMCSF. The cells were treated for 12 days and were stained for tartarate resistant acid phosphatase activity (TRAP) and multinucleated osteoclasts were counted.
# Bone marrow cells isolated from rat femur were cultured in Alpha MEM without phenol red+10% sterile FBS without phenol red in the presence or absence of […] RANKL and 10 ng/ml GMCSF. The cells were treated for 12 days were stained for tartarate resistant acid phosphatase activity (TRAP) positive multinucleated osteoclasts and were counted.
# PC-3 cells = test: Androgen independent prostate cancer cell growth; format: cell-based
# Procedure: PC-3 cells were plated in RPMI+10% csFBS at 6000 cells per well of a 96 well plate. Medium was changed to RPMI+1% csFBS without phenol red and then treated for 72 hrs with increasing concentrations of SERMs.
# The prostate cancer cell line PC-3 was plated in RPMI+10% csFBS at 6000 cells per well of a 96 well plate. Medium was changed to RPMI+1% csFBS without phenol red and cells were treated for 72 hrs with increasing concentrations of SERMs.
# PC-3 growth inhibition was determined qualitatively, in vitro, and represented as a grading system based on the ability of the SERMs to inhibit growth. The number −4 is for compounds that induced 100% growth inhibition at 1 uM, −3 for compounds that inhibit growth by about 75-90%, −2 for about 50-70% and −1 for inhibition less than 50% growth.
# [4] = format: in vivo, human; conditions: 80 mg/day
# ER-α = biological target: T1, ER-α (Rattus norvegicus, UniProt P06211); test: ER-α transactivation, ERE-LUC in COS or 293 cells; format: cell-based; parameters: % estardiol activity, ER-α: dose or concentration left out as unconfirmed
# T1 sequence (P06211 1-600): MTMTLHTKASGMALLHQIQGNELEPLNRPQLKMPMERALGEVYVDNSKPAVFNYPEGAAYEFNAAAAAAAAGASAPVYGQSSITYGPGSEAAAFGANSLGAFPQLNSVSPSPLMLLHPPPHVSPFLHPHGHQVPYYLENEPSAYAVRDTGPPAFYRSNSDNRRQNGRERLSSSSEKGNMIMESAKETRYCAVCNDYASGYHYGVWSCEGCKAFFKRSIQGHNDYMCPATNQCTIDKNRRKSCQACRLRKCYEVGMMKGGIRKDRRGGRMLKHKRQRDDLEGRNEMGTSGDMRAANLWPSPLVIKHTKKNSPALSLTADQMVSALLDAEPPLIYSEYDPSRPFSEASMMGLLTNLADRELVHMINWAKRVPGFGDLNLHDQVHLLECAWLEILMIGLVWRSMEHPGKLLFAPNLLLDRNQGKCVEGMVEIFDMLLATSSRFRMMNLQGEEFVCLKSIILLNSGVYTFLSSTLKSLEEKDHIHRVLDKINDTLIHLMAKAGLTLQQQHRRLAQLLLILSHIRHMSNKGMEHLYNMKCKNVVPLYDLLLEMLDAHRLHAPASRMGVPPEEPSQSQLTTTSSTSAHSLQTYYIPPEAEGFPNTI
# Procedure: FIG. 1: Effects of the indicated compounds on ER-α transactivation. COS or 293 cells plated in DME without phenol red+10% charcoal stripped fetal bovine serum (csFBS) at 90,000 cells per well of 24 well plates were transfected with 0.25 μg ERE-LUC, 0.02 μg CMV-LUC (Renilla) and 25 ng of ER-α by lipofectamine. Twenty four hours after transfection, the cells were treated as indicated in the figure, harvested 48 hrs after transfection and were assayed for firefly and renilla luciferase.
# (§1) FIG. 5: Effect of the indicated compounds on ER-α transactivation. COS or 293 cells plated in DME without phenol red+10% csFBS at 90,000 cells per well of a 24 well plate were transfected with 0.25 μg ERE-LUC, 0.02 μg CMV-LUC (Renilla) and 5 ng of ER-α by lipofectamine. Twenty four hours after transfection, the cells were treated as indicated in the figure, harvested 48 hrs after transfection and were assayed for firefly and renilla luciferase.
# as §1, with “FIG. 9:” for “FIG. 5:”, “csFBS” for “csFBS at 90,000 cells”, “and 25” for “and 5”
# Also 25 ng of ER-α (FIGS. 1, 5, and 9), 50 ng of ER-β (FIGS. 2, 6 and 10) or 12.5 ng of AR (FIG. 3) were introduced by lipofectamine. All the receptors were cloned from rat tissue into the PCR3.1 vector backbone. […] Cells were harvested 48 hrs after transfection, and assayed for firefly and Renilla luciferase activity.
# Also 25 ng of ER-α), 50 ng of ER-β or 12.5 ng of AR were introduced by lipofectamine. All the receptors were cloned from rat tissue into the PCR3.1 vector backbone. […] Cells were harvested 48 hrs after transfection, and assayed for firefly and Renilla luciferase activity.
# ER-β = biological target: T2, ER-β (Rattus norvegicus, UniProt Q62986); test: ER-β transactivation, ERE-LUC in COS or 293 cells; format: cell-based; conditions: COS or 293 cells
# T2 construct: expressed in transfected cells; host or cells: COS or 293 cells
# Procedure: as §1, with “FIG. 2:” for “FIG. 5:”, “on ER-β” for “on ER-α”, “and 50” for “and 5”, “of ER-β” for “of ER-α”
# as §1, with “FIG. 6:” for “FIG. 5:”, “on ER-β” for “on ER-α”, “and 50” for “and 5”, “of ER-β” for “of ER-α”, “and” for “and were”
# as §1, with “FIG. 10:” for “FIG. 5:”, “on ER-β” for “on ER-α”, “in DME+10%” for “in DME without phenol red+10%”, “and 50” for “and 5”, “of ER-β” for “of ER-α”
# (§2) All the receptors were cloned from rat tissue into the PCR3.1 vector backbone. […] Cells were harvested 48 hrs after transfection, and assayed for firefly and Renilla luciferase activity.
# as §2
# osteoblasts = test: Osteoblast activity; format: cell-based
# uterus = test: In vivo estrogenic activity, uterine weight; parameters: species or system rat; conditions: female rats, compound alone
# Procedure: Rats that were administered the vehicle alone served as controls.
# [5] = baseline to month 12, compared to placebo
# T2 sequence (Q62986 whole entry): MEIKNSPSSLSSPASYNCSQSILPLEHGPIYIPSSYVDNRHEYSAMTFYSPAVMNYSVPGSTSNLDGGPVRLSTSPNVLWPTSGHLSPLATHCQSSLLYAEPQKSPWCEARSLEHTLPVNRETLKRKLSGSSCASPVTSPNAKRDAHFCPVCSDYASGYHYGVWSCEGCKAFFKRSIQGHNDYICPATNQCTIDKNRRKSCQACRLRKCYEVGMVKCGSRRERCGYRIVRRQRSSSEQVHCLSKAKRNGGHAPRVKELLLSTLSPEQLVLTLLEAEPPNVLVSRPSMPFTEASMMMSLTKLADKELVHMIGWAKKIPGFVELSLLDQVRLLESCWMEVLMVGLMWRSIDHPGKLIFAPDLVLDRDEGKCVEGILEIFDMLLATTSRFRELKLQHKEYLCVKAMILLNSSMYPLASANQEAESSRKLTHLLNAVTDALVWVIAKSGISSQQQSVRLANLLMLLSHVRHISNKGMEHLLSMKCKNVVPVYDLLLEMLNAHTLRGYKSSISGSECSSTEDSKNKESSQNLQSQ
structure (smiles),measurement,setting,value
CCN(CC)CCOc1ccc(C(=C(Cl)c2ccccc2)c2ccccc2)cc1 [clomiphene],viability of CCRF/CEM cells,CCRF/CEM,cause a decrease in viability
CC/C(=C(\c1ccccc1)c1ccc(OCCN(C)C)cc1)c1ccccc1 [tamoxifen],viability of CCRF/CEM cells,CCRF/CEM,cause a decrease in viability
same,incidence of lipo-polysaccharide induced inflammatory responses,[1],reduce the incidence of lipo-polysacharride induced inflammatory responses
"C[C@]12CC[C@@H]3c4ccc(O)cc4CC[C@H]3[C@@H]1CC[C@@H]2O [estrogen, Estradiol, reference compound]",pS2 expression,[2],increased pS2
same,osteoclast differentiation / osteoclast activity,[3],strongly suppressed osteoclast differentiation
same,incidence of lipo-polysaccharide induced inflammatory responses,[1],reduce the incidence of lipo-polysacharride induced inflammatory responses
CN(C)CCOc1ccc(/C(=C(/CCCl)c2ccccc2)c2ccccc2)cc1 [toremifene],osteoclast differentiation / osteoclast activity,[3],minimally but dose-dependently suppressed the osteoclast differentiation
same,inhibition at 10 µM,"PC-3 cells; Homo sapiens, PC-3, 10 μM, 72 hrs",100%
same,"PC-3 growth inhibition, qualitative grading","PC-3 cells; in vitro, data not shown",−2 (−2 for about 50-70%)
same,serum lipid parameters overall,[4],statistically significant improvement in all serum lipid parameters measured
same,change in HDL levels,[4]; [5],+5.4%
same,change in LDL,[4]; [5],−9.0%
same,change in total circulating cholesterol,[4]; [5],−7.1%
same,change in triglyceride levels,[4]; [5],−20.1%
"O=C(c1ccc(O)cc1)N(c1ccccc1)c1ccccc1 [Compound 3e, 4-hydroxy-N,N-diphenyl-benzamide]","% estardiol activity, ER-α",ER-α,133%
same,"ER-α activity (luciferase expression), compound alone",ER-α; COS or 293 cells,most potent in stimulating ER-α
same,"ER-β LUC expression, compound alone",ER-β,most potent in stimulating ER-β
same,pS2 expression,[2],increased pS2 expression levels
same,osteoclast differentiation / osteoclast activity,[3],highly suppressive of osteoclast activity
same,osteoblast activity,osteoblasts,stimulated osteoblast activity
same,estrogenic activity in terms of uterine weight,uterus,"exhibited no estrogenic, or anti-estrogenic activity in uterus"
"O=C(c1ccccc1)N(c1ccc(O)cc1)c1ccc(O)cc1 [Compound 3d, N,N-bis-(4-hydroxyphenyl)-benzamide]","% estardiol activity, ER-α",ER-α,48%
same,osteoclast differentiation / osteoclast activity,[3],suppressed osteoclasts
same,osteoblast activity,osteoblasts,stimulated osteoblasts
same,estrogenic activity in terms of uterine weight,uterus,"exhibited estrogenic activity, in terms of increased uterine weight"
COc1ccc2c(c1)CCC(c1ccccc1)=C2c1ccc(OCCN2CCCC2)cc1 [nafoxidine],viability of CCRF/CEM cells,CCRF/CEM,cause a decrease in viability
